Laboratory results as given in paper PMC4038586, “Venus Kinase Receptors Control Reproduction in the Platyhelminth Parasite Schistosoma mansoni” (PLoS Pathogens, 2014).

What follows are molecules tested against T1, SmVKR1 (Schistosoma mansoni, UniProt Q8WSM2) (assay: GVBD competition assay in receptor-expressing Xenopus oocytes). Settings: competitive antagonist; 10-fold excess over L-Arg; inactive as agonist.
T1 construct: full-length, pcDNA3.1-V5/His (V5 or Myc tag), cRNA-injected Xenopus laevis oocytes; about 150 kDa; active as homodimer
Format: cell-based

T1 sequence (Q8WSM2 24-1559): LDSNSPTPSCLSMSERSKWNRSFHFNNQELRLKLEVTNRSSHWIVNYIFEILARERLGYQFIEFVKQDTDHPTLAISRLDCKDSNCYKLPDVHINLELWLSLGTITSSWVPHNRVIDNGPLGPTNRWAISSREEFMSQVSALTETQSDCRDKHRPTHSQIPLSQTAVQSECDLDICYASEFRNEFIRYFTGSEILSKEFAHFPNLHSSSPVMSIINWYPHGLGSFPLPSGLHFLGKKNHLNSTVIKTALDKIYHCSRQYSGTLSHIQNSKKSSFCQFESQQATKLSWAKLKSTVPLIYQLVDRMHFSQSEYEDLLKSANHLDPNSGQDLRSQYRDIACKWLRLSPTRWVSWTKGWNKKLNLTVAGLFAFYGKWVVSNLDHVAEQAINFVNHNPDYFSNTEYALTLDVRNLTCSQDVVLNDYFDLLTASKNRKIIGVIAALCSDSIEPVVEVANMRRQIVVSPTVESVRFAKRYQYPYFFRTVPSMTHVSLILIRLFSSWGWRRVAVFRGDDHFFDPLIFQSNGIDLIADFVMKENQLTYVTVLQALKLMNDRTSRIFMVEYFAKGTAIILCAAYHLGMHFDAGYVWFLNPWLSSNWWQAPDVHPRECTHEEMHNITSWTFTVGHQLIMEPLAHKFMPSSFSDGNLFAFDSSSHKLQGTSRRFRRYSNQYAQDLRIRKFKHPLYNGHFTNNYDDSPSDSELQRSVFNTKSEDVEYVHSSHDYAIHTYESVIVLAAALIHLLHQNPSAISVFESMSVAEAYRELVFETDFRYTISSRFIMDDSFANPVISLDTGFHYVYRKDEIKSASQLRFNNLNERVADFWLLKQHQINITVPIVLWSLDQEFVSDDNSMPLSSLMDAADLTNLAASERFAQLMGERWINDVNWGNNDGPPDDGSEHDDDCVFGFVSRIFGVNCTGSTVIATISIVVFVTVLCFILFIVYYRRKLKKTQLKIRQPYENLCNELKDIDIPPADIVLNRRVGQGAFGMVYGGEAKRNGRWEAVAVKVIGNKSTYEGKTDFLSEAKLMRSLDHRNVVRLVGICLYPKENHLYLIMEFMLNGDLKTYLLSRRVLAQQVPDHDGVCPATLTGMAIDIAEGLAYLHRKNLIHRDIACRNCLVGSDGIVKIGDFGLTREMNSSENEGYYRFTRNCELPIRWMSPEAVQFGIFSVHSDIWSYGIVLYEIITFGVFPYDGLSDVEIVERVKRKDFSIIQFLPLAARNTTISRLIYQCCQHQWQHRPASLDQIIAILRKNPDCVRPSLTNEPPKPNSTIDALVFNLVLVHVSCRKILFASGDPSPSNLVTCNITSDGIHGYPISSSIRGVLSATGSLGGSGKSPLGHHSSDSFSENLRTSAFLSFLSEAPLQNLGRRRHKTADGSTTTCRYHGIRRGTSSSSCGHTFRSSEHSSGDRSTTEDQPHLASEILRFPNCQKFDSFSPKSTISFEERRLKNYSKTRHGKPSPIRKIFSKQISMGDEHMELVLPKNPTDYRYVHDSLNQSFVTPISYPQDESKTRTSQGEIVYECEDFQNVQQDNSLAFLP

Row | Compound | GVBD competition assay in receptor-expressing Xenopus oocytes
1 | N=C(N)NOCC[C@H](N)C(=O)O [Canavanine] | compete and to block totally the inducing effect of L-Arg
2 | N=C(N)NCCC[C@@H](N)C(=O)O [D-Arg] | compete and to block totally the inducing effect of L-Arg
3 | N=C(N)NCCCCN [agmatine] | compete and to block totally the inducing effect of L-Arg
4 | CN(CC(=O)O)C(=N)N [creatine] | compete and to block totally the inducing effect of L-Arg
5 | NCCC[C@H](N)C(=O)O [ornithine] | compete and to block totally the inducing effect of L-Arg

Each molecule was assayed against T1, SmVKR1 (assay: GVBD assay in receptor-expressing Xenopus oocytes). Settings: agonist.
Format: cell-based

Row | Compound | GVBD at 1 mM
6 | C[C@H](N)C(=O)O [Ala] | (Arg, Ser, Gly, Ala, Cys, Thr and Glu) had the potential to activate SmVKR1
7 | N[C@@H](CS)C(=O)O [Cys] | (Arg, Ser, Gly, Ala, Cys, Thr and Glu) had the potential to activate SmVKR1
8 | N[C@@H](CCC(=O)O)C(=O)O [Glu] | (Arg, Ser, Gly, Ala, Cys, Thr and Glu) had the potential to activate SmVKR1
9 | NCC(=O)O [Gly] | (Arg, Ser, Gly, Ala, Cys, Thr and Glu) had the potential to activate SmVKR1
10 | N[C@@H](CO)C(=O)O [Ser] | (Arg, Ser, Gly, Ala, Cys, Thr and Glu) had the potential to activate SmVKR1
11 | C[C@@H](O)[C@H](N)C(=O)O [Thr] | (Arg, Ser, Gly, Ala, Cys, Thr and Glu) had the potential to activate SmVKR1

The molecules below were run against T2, SmVKR2 (Schistosoma mansoni, UniProt D5JEH1) (assay: GVBD assay in receptor-expressing Xenopus oocytes; receptor autophosphorylation by Western blot). Settings: agonist; ND96 medium without Ca2+; VFT domain.
T2 construct: full-length, pcDNA3.1-V5/His (V5 or Myc tag), cRNA-injected Xenopus laevis oocytes; about 170 kDa; active as homodimer
Format: cell-based

T2 sequence (D5JEH1 21-1641): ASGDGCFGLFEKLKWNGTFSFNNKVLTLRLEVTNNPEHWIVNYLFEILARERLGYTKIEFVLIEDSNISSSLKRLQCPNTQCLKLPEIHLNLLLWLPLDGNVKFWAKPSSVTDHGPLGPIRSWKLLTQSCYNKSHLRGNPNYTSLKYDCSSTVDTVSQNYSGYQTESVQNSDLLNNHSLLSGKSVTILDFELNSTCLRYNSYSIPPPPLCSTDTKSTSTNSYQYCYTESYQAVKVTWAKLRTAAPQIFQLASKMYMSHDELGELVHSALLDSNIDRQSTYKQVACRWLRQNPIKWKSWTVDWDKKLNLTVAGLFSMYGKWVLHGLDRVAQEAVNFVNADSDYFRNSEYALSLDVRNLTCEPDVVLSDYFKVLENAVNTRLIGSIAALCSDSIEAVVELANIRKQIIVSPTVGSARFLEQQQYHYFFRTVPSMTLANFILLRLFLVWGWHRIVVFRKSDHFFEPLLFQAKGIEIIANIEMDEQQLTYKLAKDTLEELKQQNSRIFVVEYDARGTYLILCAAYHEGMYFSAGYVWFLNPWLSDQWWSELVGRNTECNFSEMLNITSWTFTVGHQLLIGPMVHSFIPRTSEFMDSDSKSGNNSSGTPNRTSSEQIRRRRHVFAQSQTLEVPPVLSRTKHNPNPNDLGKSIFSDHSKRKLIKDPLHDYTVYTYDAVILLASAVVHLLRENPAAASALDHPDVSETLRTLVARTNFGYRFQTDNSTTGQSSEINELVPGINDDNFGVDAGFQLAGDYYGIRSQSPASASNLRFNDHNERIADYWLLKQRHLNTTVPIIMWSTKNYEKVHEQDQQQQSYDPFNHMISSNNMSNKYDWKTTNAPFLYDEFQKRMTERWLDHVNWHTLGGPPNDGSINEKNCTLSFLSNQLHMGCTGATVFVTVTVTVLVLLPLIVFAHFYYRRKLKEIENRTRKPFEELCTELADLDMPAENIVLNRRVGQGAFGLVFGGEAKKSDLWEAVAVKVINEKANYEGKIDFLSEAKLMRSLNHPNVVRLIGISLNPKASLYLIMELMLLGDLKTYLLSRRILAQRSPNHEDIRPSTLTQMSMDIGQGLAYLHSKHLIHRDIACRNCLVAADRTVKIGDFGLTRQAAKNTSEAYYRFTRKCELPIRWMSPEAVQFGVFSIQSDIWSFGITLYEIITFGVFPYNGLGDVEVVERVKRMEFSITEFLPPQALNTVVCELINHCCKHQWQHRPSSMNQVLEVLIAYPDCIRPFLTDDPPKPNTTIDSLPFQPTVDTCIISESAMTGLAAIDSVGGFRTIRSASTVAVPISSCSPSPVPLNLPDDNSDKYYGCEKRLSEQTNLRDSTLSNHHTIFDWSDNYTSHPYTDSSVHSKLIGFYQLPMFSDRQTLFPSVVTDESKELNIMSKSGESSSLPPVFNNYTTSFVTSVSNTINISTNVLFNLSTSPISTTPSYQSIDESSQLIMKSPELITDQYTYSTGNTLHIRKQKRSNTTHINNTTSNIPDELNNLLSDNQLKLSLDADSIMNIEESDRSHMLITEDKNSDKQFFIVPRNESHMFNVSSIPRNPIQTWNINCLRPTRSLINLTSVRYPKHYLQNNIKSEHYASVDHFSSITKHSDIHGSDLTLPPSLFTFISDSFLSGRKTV

Row | Compound | minimal concentration
12 | N=C(N)NCCC[C@H](N)C(=O)O [L-Arg] | 1 mM

These molecules were tested against T1, SmVKR1 in the same assay as above. Settings: agonist; ND96 medium, 19 °C, 15 h; VFT domain; activation independent of Ca2+.
Format: cell-based

Row | Compound | % GVBD at 1 μM
13 | N=C(N)NCCC[C@H](N)C(=O)O [L-Arg] | 80%
